Source: US20220380375A1, “SUBSTITUTED AROMATIC FUSED RING DERIVATIVE AND COMPOSITION COMPRISING SAME, AND USE THEREOF” (Shenzhen TargetRx, Inc., priority 2019, published 2022)

Assays:
Type in all cases: cell-based
Ba/F3 FLT3-ITD cells = molecular target: T1, Ba/F3 FLT3-ITD cells (Homo sapiens, UniProt P36888, cells depend on it, form not given); test: Cytotoxicity assay (CellTiter-Glo), Ba/F3 FLT3-ITD; details: CellTiter-Glo, 72 hrs; read-out: Ba/F3 FLT3-ITD IC50
T1 construct: Ba/F3 FLT3-ITD IC50 (nM); other: CellTiter-Glo, 72 hrs
T1 sequence (P36888 1-993): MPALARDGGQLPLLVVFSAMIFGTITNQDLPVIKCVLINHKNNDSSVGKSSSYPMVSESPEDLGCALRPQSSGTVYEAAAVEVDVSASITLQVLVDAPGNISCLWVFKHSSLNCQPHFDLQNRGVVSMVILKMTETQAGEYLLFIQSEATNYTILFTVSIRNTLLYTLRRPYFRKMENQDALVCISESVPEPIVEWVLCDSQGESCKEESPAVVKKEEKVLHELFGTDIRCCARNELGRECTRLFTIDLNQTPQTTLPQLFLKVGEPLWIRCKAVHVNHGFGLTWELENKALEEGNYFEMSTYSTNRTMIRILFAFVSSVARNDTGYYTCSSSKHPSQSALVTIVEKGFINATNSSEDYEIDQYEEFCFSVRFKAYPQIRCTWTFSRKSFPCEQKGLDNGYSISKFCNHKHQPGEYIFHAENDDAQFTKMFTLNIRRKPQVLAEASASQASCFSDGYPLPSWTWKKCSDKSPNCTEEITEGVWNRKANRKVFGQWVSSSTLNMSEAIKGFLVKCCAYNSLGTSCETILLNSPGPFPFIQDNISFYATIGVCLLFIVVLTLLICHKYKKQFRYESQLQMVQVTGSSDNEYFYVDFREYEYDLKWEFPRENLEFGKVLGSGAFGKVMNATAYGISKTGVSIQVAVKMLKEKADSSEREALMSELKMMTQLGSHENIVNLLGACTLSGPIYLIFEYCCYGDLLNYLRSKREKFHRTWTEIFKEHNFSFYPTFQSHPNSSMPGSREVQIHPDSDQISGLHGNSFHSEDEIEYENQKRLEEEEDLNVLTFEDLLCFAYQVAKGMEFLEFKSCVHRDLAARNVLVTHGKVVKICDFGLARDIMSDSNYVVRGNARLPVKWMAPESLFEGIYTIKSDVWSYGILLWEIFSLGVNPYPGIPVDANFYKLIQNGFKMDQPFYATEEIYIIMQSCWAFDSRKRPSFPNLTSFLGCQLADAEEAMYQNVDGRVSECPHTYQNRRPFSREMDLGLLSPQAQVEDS
Protocol: (§1) Inhibitory effects of example compounds on the activity of Ba/F3 parental generation, Ba/F3 KIF5B-RET, Ba/F3 KIF5B-RET^V804M, Ba/F3 KIF5B-RET^V804L, Ba/F3 KIF5B-RET^G810R, Ba/F3 FLT3-ITD, Ba/F3 FLT3-ITD^D835Y, Ba/F3 FLT3-ITD^F691L cells were determined.
(§2) Materials and reagents: fetal bovine serum FBS (GIBCO, Cat #10099141), CellTiter-Glo® Luminescent Cell Viability Assay kit (Promega, Cat #G7572), 96-well black-wall clear flat-bottom plate (Corning®, Cat #3603).
(§3) 1. Cells in the logarithmic growth phase were harvested and counted with a […]. Cell viability was detected by a trypan blue exclusion method, ensuring that cell viability was 90% or more; 2. Cell concentration was adjusted to about 3000 cells/well; 90 μl of cell suspension was added to each well of the 96-well plate; 3. The cells in the 96-well plate were incubated overnight under the condition of 37° C., 5% CO2, and 95% humidity.
(§4) 1. A series of compound solutions were formulated by 3.16-fold serial dilution starting from a concentration of 10 μM, resulting in 9 concentrations. 10 μL of the compound solutions were added in each well of the 96-well plate seeded with cells in triplicate for each compound concentration; 2. The cells in the 96-well plate added with compounds were further incubated under the condition of 37° C., 5% CO2, and 95% humidity for 72 hrs, and then CTG analysis was carried out.
(§5) 1. CTG reagent was thawed, and the cell plate was equilibrated at room temperature for 30 minutes; 2. An equal volume […] of CTG solution was added to each well; 3. The cell plate was shaken on an orbital shaker for 5 minutes to lyse the cells; 4. The cell plate was placed at RT for 20 minutes to stabilize the luminescence signal; 5. Luminescence value was read.
(§6) Data were Analyzed by GraphPad Prism 5.0 Software, and Fitted by Nonlinear S-Curve Regression to obtain a dose-response curve, from which IC50 values were calculated.
(§7) Cell survival rate (%)=(luminescence value of drug to be tested−luminescence value of culture medium control)/(luminescence value of cell control−luminescence value of culture medium control)×100%.

[1] = molecular target: T2, Ba/F3 KIF5B-RET^V804L cells (Homo sapiens, UniProt P07949, V804L, cells depend on it); test: Cytotoxicity assay (CellTiter-Glo), Ba/F3 KIF5B-RET V804L; details: CellTiter-Glo, 72 hrs; read-out: Ba/F3 KIF5B-RET^V804L IC50
T2 construct: Ba/F3 KIF5B-RET^V804L IC50 (nM); other: CellTiter-Glo, 72 hrs; fused on or other part: P33176 (Kinesin-1 heavy chain)
Protocol: as §1, §2, §3, §4, §5, §6, §7

[2] = test system: Ba/F3 KIF5B-RET^V804L cells; test: as above; details: ratio of Ba/F3 parental IC50 to Ba/F3 KIF5B-RET^V804L IC50
Protocol: as §1, §2, §3, §4, §5, §6, §7

[3] = test system: Ba/F3 KIF5B-RET^V804M cells; test: Cytotoxicity assay (CellTiter-Glo), Ba/F3 KIF5B-RET V804M; details: ratio of Ba/F3 parental IC50 to Ba/F3 KIF5B-RET^V804M IC50
Protocol: as §1, §2, §3, §4, §5, §6, §7

[4] = molecular target: T3, Ba/F3 KIF5B-RET^V804M cells (Homo sapiens, UniProt P07949, V804M, cells depend on it); test: as above; details: CellTiter-Glo, 72 hrs; read-out: Ba/F3 KIF5B-RET^V804M IC50
T3 construct: Ba/F3 KIF5B-RET^V804M IC50 (nM); other: CellTiter-Glo, 72 hrs; fused on or other part: P33176 (Kinesin-1 heavy chain)
Protocol: as §1, §2, §3, §4, §5, §6, §7

T2 sequence (P07949 whole entry V804L, the tested form may be a part): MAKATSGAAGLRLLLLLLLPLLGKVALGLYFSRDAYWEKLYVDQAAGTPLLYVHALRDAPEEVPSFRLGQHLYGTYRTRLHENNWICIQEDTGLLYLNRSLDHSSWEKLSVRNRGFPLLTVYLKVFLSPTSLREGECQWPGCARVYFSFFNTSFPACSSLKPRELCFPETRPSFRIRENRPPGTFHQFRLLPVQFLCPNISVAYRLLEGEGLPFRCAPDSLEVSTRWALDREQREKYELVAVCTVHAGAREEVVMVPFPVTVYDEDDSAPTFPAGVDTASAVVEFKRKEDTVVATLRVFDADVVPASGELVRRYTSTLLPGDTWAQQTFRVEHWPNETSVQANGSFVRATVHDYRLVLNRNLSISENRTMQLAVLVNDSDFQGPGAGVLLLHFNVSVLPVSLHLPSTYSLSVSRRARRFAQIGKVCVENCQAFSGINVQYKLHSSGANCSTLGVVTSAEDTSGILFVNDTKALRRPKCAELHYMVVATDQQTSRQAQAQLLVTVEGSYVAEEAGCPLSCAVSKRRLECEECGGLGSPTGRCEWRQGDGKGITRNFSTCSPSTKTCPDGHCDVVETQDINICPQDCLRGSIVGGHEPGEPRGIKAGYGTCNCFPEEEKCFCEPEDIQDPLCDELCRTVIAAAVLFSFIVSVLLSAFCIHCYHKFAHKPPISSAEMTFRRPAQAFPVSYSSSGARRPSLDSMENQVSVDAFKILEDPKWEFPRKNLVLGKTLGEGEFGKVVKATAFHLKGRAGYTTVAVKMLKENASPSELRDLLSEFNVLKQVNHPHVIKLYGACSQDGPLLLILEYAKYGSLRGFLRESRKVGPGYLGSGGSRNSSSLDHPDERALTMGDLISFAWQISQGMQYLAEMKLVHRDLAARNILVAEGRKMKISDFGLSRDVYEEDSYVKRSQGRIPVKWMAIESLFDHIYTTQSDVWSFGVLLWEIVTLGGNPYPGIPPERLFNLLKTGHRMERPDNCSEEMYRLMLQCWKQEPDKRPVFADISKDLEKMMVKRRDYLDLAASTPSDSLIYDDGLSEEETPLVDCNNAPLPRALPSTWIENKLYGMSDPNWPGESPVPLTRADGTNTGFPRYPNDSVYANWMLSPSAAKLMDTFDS
T3 sequence (P07949 whole entry V804M, the tested form may be a part): as the sequence (P07949 whole entry V804L, the tested form may be a part) above, with L804M counted along it

**Q.** Which results are given for `CC(C)n1nc(-c2ccc(NC(=O)Nc3cc(C(F)(F)F)ccc3F)cc2)c2c(N)ncnc21` [AD80, reference compound]?
**A.** GI50 (Ba/F3 FLT3-ITD cells): 0.67 nM; GI50 [1]: 9.05 nM; Ba/F3 KIF5B-RET^V804L Selectivity on parental generation [2]: 89.7; Ba/F3 KIF5B-RET^V804M Selectivity on parental generation [3]: 75.2; GI50 [4]: 10.8 nM
